Laboratory results reported in patent US10323036B2 (Nimbus Lakshmi, Inc., priority 2016, dated 2019).
Where two headings read alike, the source gives them in different places.

Biological target: human TYK2 (JH2domain-pseudokinase) (Homo sapiens (Human), UniProt P29597)
Assay: TYK2 JH2 Domain Binding Assay (KINOMEscan)
[1] = Table 4, JH2 binding assay, read-out: JH2 Kd

Chain of human TYK2 (JH2domain-pseudokinase) (P29597 556-888): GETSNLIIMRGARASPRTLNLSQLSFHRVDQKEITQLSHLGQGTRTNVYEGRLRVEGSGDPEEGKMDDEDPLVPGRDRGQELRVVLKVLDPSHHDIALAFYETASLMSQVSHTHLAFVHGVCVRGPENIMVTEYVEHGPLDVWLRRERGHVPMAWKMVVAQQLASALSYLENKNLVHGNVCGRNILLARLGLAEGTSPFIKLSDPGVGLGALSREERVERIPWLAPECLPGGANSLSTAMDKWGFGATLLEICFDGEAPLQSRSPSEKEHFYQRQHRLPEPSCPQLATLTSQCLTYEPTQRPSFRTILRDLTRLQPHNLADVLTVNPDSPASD

| SMILES | Kd [1] | also measured |
| --- | --- | --- |
| CNc1nn(-c2cccc(-c3nnn(C)n3)c2OC)c2cc(NC(=O)C3CC3)ncc12 [XVI-3, N-(1-(2-methoxy-3-(2-methyl-2H-tetrazol-5-yl)phenyl)-3-(methylamino)-1H-pyrazolo[4,3-c]pyridin-6-yl)cyclopropanecarboxamide] |  | Kd (Table 5, Tyk2 JH2 Domain Binding Assay, read-out: JH2 Kd): > 100 nM; Kd (Tyk2 JH2 Domain Binding Assay, read-out: Kd): 7000 to 10000 nM |
| COc1c(Nc2cc(NC(=O)C3CC3)nc3[nH]n(C)c(=O)c23)cccc1N1CCCC1=O [Compound I-88, N-(4-((2-methoxy-3-(2-oxopyrrolidin-1-yl)phenyl)amino)-2-methyl-3-oxo-2,3-dihydro-1H-pyrazolo[3,4-b]pyridin-6-yl)cyclopropanecarboxamide] | 1 to 10 nM |  |
| COc1c(F)cccc1Nc1cc(Nc2ccc(C(F)F)c(C#N)n2)nc2[nH]n(C)c(=O)c12 [Compound I-191, 3-(difluoromethyl)-6-((4-((3-fluoro-2-methoxyphenyl)amino)-2-methyl-3-oxo-2,3-dihydro-1H-pyrazolo[3,4-b]pyridin-6-yl)amino)picolinonitrile] | > 10 nM |  |
| COc1c(Cl)cccc1Nc1cc(Nc2ccc(C(=O)N3CCCC3)c(C(F)(F)F)n2)nc2[nH]n(C)c(=O)c12 [Compound I-128, 4-((3-chloro-2-methoxyphenyl)amino)-2-methyl-6-((5-(pyrrolidine-1-carbonyl)-6-(trifluoromethyl)pyridin-2-yl)amino)-1,2-dihydro-3H-pyrazolo[3,4-b]pyridin-3-one] | 0.1 to 0.5 nM |  |
| COc1c(Nc2cc(Nc3ccc(C)nn3)nc3[nH]n(C)c(=O)c23)cccc1-c1ncn(C)n1 [Compound I-23, 4-((2-methoxy-3-(1-methyl-1H-1,2,4-triazol-3-yl)phenyl)amino)-2-methyl-6-((6-methylpyridazin-3-yl)amino)-1,2-dihydro-3H-pyrazolo[3,4-b]pyridin-3-one] | > 10 nM |  |
| COc1c(Nc2cc(Nc3cc(C)c(F)cn3)nc3[nH]n(C)c(=O)c23)cccc1C(N)=O [Compound I-106] | 1 to 10 nM |  |
| Cc1cc(Nc2cc(Nc3ccccc3S(C)(=O)=O)c3c(=O)n(C)[nH]c3n2)ncc1F [Compound I-107, 6-((5-fluoro-4-methylpyridin-2-yl)amino)-2-methyl-4-((2-(methylsulfonyl)phenyl)amino)-1,2-dihydro-3H-pyrazolo[3,4-b]pyridin-3-one] | 0.1 to 0.5 nM |  |
| COc1c(Nc2cc(Nc3ccccn3)nc3[nH]n(C)c(=O)c23)cccc1-c1ncn(C)n1 [Compound I-17, 4-((2-methoxy-3-(1-methyl-1H-1,2,4-triazol-3-yl)phenyl)amino)-2-methyl-6-(pyridin-2-ylamino)-1,2-dihydro-3H-pyrazolo[3,4-b]pyridin-3-one] | < 0.1 nM |  |
| COc1c(Cl)cccc1Nc1cc(Nc2cc(C)c(F)cn2)nc2[nH]n(C)c(=O)c12 [Compound I-95, 4-((3-chloro-2-methoxyphenyl)amino)-6-((5-fluoro-4-methylpyridin-2-yl)amino)-2-methyl-1,2-dihydro-3H-pyrazolo[3,4-b]pyridin-3-one] | 1 to 10 nM |  |
| COc1c(Nc2cc(Nc3cc(CO)ccn3)nc3[nH]n(C)c(=O)c23)cccc1-c1ncn(C)n1 [Compound I-19, 6-((4-(hydroxymethyl)pyridin-2-yl)amino)-4-((2-methoxy-3-(1-methyl-1H-1,2,4-triazol-3-yl)phenyl)amino)-2-methyl-1,2-dihydro-3H-pyrazolo[3,4-b]pyridin-3-one] | 1 to 10 nM |  |
| Cc1ncc(Nc2cc(Nc3ccc(Cl)cc3S(C)(=O)=O)c3c(=O)n(C)[nH]c3n2)nc1C [Compound I-207, 4-((4-chloro-2-(methylsulfonyl)phenyl)amino)-6-((5,6-dimethylpyrazin-2-yl)amino)-2-methyl-1,2-dihydro-3H-pyrazolo[3,4-b]pyridin-3-one] | 1 to 10 nM |  |
| CN(c1cc(F)c(F)cc1Nc1cc(NC(=O)C2CC2)nc2[nH]n(C)c(=O)c12)S(C)(=O)=O [Compound I-230, N-(4-((4,5-difluoro-2-(N-methylmethylsulfonamido)phenyl)amino)-2-methyl-3-oxo-2,3-dihydro-1H-pyrazolo[3,4-b]pyridin-6-yl)cyclopropanecarboxamide] | 0.5 to 1 nM |  |
| CN(c1cc(C2CCC2)ccc1Nc1cc(NC(=O)[C@@H]2C[C@@H]2F)nc2[nH]n(C)c(=O)c12)S(C)(=O)=O [Compound I-236, (1S,2S)-N-(4-((4-cyclobutyl-2-(N-methylmethylsulfonamido)phenyl)amino)-2-methyl-3-oxo-2,3-dihydro-1H-pyrazolo[3,4-b]pyridin-6-yl)-2-fluorocyclopropane-1-carboxamide] | > 10 nM |  |
| COCc1ccnc(Nc2cc(Nc3cccc(F)c3OC)c3c(=O)n(C)[nH]c3n2)c1 [Compound I-76, 4-((3-fluoro-2-methoxyphenyl)amino)-6-((4-(methoxymethyl)pyridine-2-yl)amino)-2-methyl-1,2-dihydro-3H-pyrazolo[3,4-b]pyridin-3-one] | 1 to 10 nM |  |
| COc1c(Nc2cc(NC(=O)C3CC3)nc3[nH]n(C)c(=O)c23)cccc1C(=O)O [Compound I-231, 3-((6-(cyclopropanecarboxamido)-2-methyl-3-oxo-2,3-dihydro-1H-pyrazolo[3,4-b]pyridin-4-yl)amino)-2-methoxybenzoic acid] | 1 to 10 nM |  |
| COc1c(C#N)cccc1Nc1cc(Nc2ccc(N3CCCCC3)cn2)nc2[nH]n(C)c(=O)c12 [Compound I-40] | > 10 nM |  |
| COc1c(Cl)cccc1Nc1cc(Nc2ccc(N3CC[C@H](OC)C3)c(C#N)n2)nc2[nH]n(C)c(=O)c12 [Compound I-145, (S)-6-((4-((3-chloro-2-methoxyphenyl)amino)-2-methyl-3-oxo-2,3-dihydro-1H-pyrazolo[3,4-b]pyridin-6-yl)amino)-3-(3-methoxypyrrolidin-1-yl)picolinonitrile] | 0.1 to 0.5 nM |  |
| Cc1ccc(Nc2cc(Nc3ccccc3S(C)(=O)=O)c3c(=O)n(C)[nH]c3n2)nn1 [Compound I-109, 2-methyl-6-((6-methylpyridazin-3-yl)amino)-4-((2-(methylsulfonyl)phenyl)amino)-1,2-dihydro-3H-pyrazolo[3,4-b]pyridin-3-one] | 0.1 to 0.5 nM |  |
| CCNC(=O)c1cccc(Nc2cc(Nc3cccc(-c4nnn(C)n4)c3OC)c3c(=O)n(C)[nH]c3n2)n1 [Compound I-66, N-ethyl-6-((4-((2-methoxy-3-(2-methyl-2H-tetrazol-5-yl)phenyl)amino)-2-methyl-3-oxo-2,3-dihydro-1H-pyrazolo[3,4-b]pyridin-6-yl)amino)picolinamide] | 0.5 to 1 nM |  |
| COc1c(Cl)cccc1Nc1cc(Nc2cnc(C)c(C#N)n2)nc2[nH]n(C)c(=O)c12 [Compound I-135, 6-((4-((3-chloro-2-methoxyphenyl)amino)-2-methyl-3-oxo-2,3-dihydro-1H-pyrazolo[3,4-b]pyridin-6-yl)amino)-3-methylpyrazine-2-carbonitrile] | 1 to 10 nM |  |
| Cc1cc(Nc2cc(Nc3ccc(C4CC4)cc3S(C)(=O)=O)c3c(=O)n(C)[nH]c3n2)nc(C)n1 [Compound I-206, 4-((4-cyclopropyl-2-(methylsulfonyl)phenyl)amino)-6-((2,6-dimethylpyrimidin-4-yl)amino)-2-methyl-1,2-dihydro-3H-pyrazolo[3,4-b]pyridin-3-one] | 0.5 to 1 nM |  |
| CN(c1ccccc1Nc1cc(NC(=O)C2CC2)nc2[nH]n(C)c(=O)c12)S(C)(=O)=O [Compound I-129, N-(2-methyl-4-((2-(N-methylmethylsulfonamido)phenyl)amino)-3-oxo-2,3-dihydro-1H-pyrazolo[3,4-b]pyridin-6-yl)cyclopropanecarboxamide] | 0.1 to 0.5 nM |  |
